This is an account of results in ChEMBL document CHEMBL1201862, “PubChem BioAssay data set” (2004).

Holding throughout (test): growth of human tumour cells (NCI), 48 h
Assay [1] has as its system SW-620.
For assay [2], the system named is A498.
The test system of assay [3] is CAKI-1.
The test system of assay [4] is MCF7.
In assay [5] the test system is OVCAR-4.
For assay [6], the system named is MOLT-4.
Assay [7] relates to HCT-15.
Assay [8] deals with SN12C.
Assay [9] has as its system M14.
In assay [10] the test system is HCC 2998.
Assay [11] concerns SF-268.
Assay [12] concerns SK-MEL-2.
Assay [13] relates to T47D.
Assay [14] relates to SK-MEL-5.
Assay [15] concerns K562.
The subject of assay [16] is KM12.
For assay [17], the system named is LOX IMVI.
Assay [18] relates to NCI-H460.
The test system of assay [19] is U-251.
For assay [20], the system named is Malme-3M.

Each structure is given as a SMILES string. Where “and” joins values, the source holds several entries; their conditions need not be identical. Identical values can stand only once.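 1) Cells in 96-well plates. 2) Compound, 48 h, 5 concentrations. 3) Linear interpolation between surrounding doses. 4) Unreached endpoint = highest concentration. Abbreviation: GI50, concentration required for 50% inhibition of growth.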 Calls of active or inactive are those of the source. No stated cut-off is given here; in the data, active = GI50 up to about 1.1 µM and inactive = higher. Where a SMILES comes first, the peptide text is derived from it. The star is where a group is joined. Cbz = O=C(OCc1ccccc1)*

As for `CN(C)CCO/N=C1/C=C2CC[C@H]3[C@@H]4CC[C@H](O)[C@@]4(C)CC[C@@H]3[C@@]2(C)CC1`, the GI50 in [1] was 10.7 µM (inactive); in assay [2] it was 15.7 µM (inactive); in [3], 31.9 µM (inactive); in assay [4], 22.8 µM (inactive); in assay [5] it was 2.49 µM (inactive); in assay [6], 8.55 µM (inactive). Moreover, the GI50 in assay [7] is 13.9 µM; in assay [8] it was 11.7 µM (inactive); in assay [9], 8.26 µM (inactive); in assay [10], 9.82 µM (inactive); in assay [11], 7.48 µM (inactive); in assay [12] it was 13.9 µM (inactive). Further, the GI50 in [13] is 23.9 µM (inactive); in assay [14] it was 8.71 µM (inactive); in [15], 6.22 µM (inactive); in [16], 10.8 µM (inactive); in assay [17], 15.9 µM (inactive); in assay [18] it was 7.11 µM (inactive). For the same molecule, the GI50 in assay [19] was 10.1 µM (inactive).

In the case of `O=C1c2ccccc2C(=O)N1CC1(C(=O)O)NCCS1(=O)=O` (stereo not drawn), the GI50 in assay [1], in [2], in assay [3], in [4], in [5] and in assay [6] was > 100 µM (inactive) throughout. Besides, the GI50 in [20] is > 100 µM (inactive); in [7], > 100 µM; in assay [8], > 100 µM (inactive); in assay [9] it was > 100 µM (inactive); in assay [11], > 100 µM (inactive); in assay [12] it was > 100 µM (inactive). Besides, the GI50 in assay [13], in [14], in [15], in assay [16], in assay [17] and in [18] was > 100 µM (inactive) throughout. Further, the GI50 in [19] is > 100 µM (inactive).

Turning to `C/C=C(\C)C(=O)OC1C(C)=C2C(C1OC(=O)CCCC)C(C)(OC(C)=O)CC(OC(=O)CCCC)C1(O)C2OC(=O)C1(C)O` (stereo not drawn), the GI50 in assay [1] was 0.501 µM (active); in [2], 6.47 µM (inactive); in assay [3], 5.13 µM (inactive); in assay [4] it was 0.394 µM (active); in [5], 1.86 µM (inactive); in assay [6] it was 1.46 µM (inactive). For the same molecule, the GI50 in assay [7] was 21 µM; in [8], 2.59 µM (inactive); in assay [9] it was 0.452 µM (active); in assay [10], 3.24 µM (inactive); in assay [12] it was 0.48 µM (active); in [13] it was 6.7 µM (inactive). Further, the GI50 in [14] was 1.73 µM (inactive); in [15], 2.2 µM (inactive); in assay [16], 0.776 µM (active); in [17] it was 0.439 µM (active); in assay [18], 0.792 µM (active); in [19], 0.605 µM (active).

Regarding `COc1ccc(-n2c(C)nc3ccc(NC4OCC(O)C(O)C4O)cc3c2=O)cc1` (stereo not drawn), the GI50 was 27.1 µM (inactive) and 36.5 µM (inactive) in assay [1]; > 100 µM (inactive) in assay [2]; 43.5 µM (inactive) and 48.4 µM (inactive) in [4]; > 100 µM (inactive) in assay [5]; 22.3 µM (inactive) and 31.5 µM (inactive) in assay [6]; 57.7 µM (inactive) and 99.3 µM (inactive) in [20]. Further, the GI50 in assay [7] was 26.6 µM and 31.6 µM; in assay [8], 38.1 µM (inactive) and 27.2 µM (inactive); in [10] it was > 100 µM (inactive); in [11], > 100 µM (inactive); in [12], > 100 µM (inactive); in [13], > 100 µM (inactive). Further, the GI50 in assay [14] was > 100 µM (inactive); in assay [15], 31.3 µM (inactive) and 30.8 µM (inactive); in assay [17], 18.8 µM (inactive) and 22.5 µM (inactive); in assay [18], 72.9 µM (inactive) and 40.5 µM (inactive); in assay [19], 60 µM (inactive) and 49.2 µM (inactive).

Consider `CCOC(=O)C(CC(=O)OC)NC(=O)C(CC(=O)OC)NC(=O)C(CC(=O)OC)NC(=O)C(CC(=O)OC)NC(=O)OCc1ccccc1` (stereo not drawn) (Cbz-D(OMe)D(OMe)D(OMe)D(OMe)-OEt; configuration not given here), for which the GI50 was > 100 µM (inactive) in assay [1]; > 100 µM (inactive) in [2]; > 100 µM (inactive) in [4]; > 100 µM (inactive) in [6]; > 100 µM (inactive) in assay [20]; > 100 µM in assay [7]. Moreover, the GI50 in [8], in assay [9], in assay [10], in [12], in [13] and in assay [14] was > 100 µM (inactive) throughout. Besides, the GI50 in assay [15], in assay [16], in assay [18] and in [19] was > 100 µM (inactive) throughout.

For `Cc1cc(OP2(=O)NCc3ccncc3O2)ccc1Cl` (stereo not drawn), the GI50 in assay [1], in assay [2], in assay [3], in [4], in assay [5] and in [6] was > 100 µM (inactive) in each case. Moreover, the GI50 in assay [7] is > 100 µM; in assay [8] it was > 100 µM (inactive); in assay [9], > 100 µM (inactive); in [10] it was > 100 µM (inactive); in [12], > 100 µM (inactive); in assay [13], > 100 µM (inactive). For the same molecule, the GI50 in assay [14], in assay [15], in assay [16], in [17], in assay [18] and in assay [19] was > 100 µM (inactive) throughout.

Regarding `CN1CCN(C2=C(Cl)C3(OCCS3)C(F)(F)C2(F)F)CC1` (stereo not drawn), the GI50 in assay [1] was > 100 µM (inactive); in [2], > 100 µM (inactive); in assay [3], > 100 µM (inactive); in assay [4], > 100 µM (inactive); in assay [5], > 100 µM (inactive); in [6], 45.4 µM (inactive). For the same molecule, the GI50 in assay [20] is > 100 µM (inactive); in assay [7] it was 79.6 µM; in assay [8], > 100 µM (inactive); in assay [9] it was > 100 µM (inactive); in assay [11], > 100 µM (inactive); in assay [12] it was > 100 µM (inactive). In addition, the GI50 in [13] was 9.35 µM (inactive); in [14], 16.6 µM (inactive); in [15], 29.8 µM (inactive); in assay [17] it was 56 µM (inactive); in assay [19] it was 39.8 µM (inactive).

With `Cc1ccc2nc3c(=O)[nH]c(=O)nc-3n(C)c2c1C`, the GI50 in assay [1], in [3], in assay [4], in assay [5], in assay [6] and in [20] was > 100 µM (inactive) each time. For the same molecule, the GI50 in [7] was > 100 µM; in assay [8], > 100 µM (inactive); in assay [9] it was > 100 µM (inactive); in assay [10], > 100 µM (inactive); in assay [11], > 100 µM (inactive); in assay [12], > 100 µM (inactive). In addition, the GI50 in [13], in [14], in assay [15], in assay [16], in assay [17] and in assay [18] was > 100 µM (inactive) throughout. Besides, the GI50 in assay [19] is > 100 µM (inactive).
